Reference: patent US20230172206A1 (BASF SE, priority 2020, published 2023)

Assays:
[1] = system: Phakopsora pachyrhizi (F129L); assay: Protective control of soybean rust on soybeans (PHAKPA P2); assay type: in vivo; conditions: for % PHAKPA (F129L) Disease level P2 at 4 ppm: protective P2, 4 ppm; for % PHAKPA (F129L) Disease level P2 at 16 ppm: protective P2, 16 ppm
[2] = system: Phakopsora pachyrhizi (F129L); assay: Protective control of soybean rust on soybeans (PHAKPA P6); assay type: in vivo; conditions: for % PHAKPA (F129L) Disease level P6 at 4 ppm: protective P6, 4 ppm; for % PHAKPA (F129L) Disease level P6 at 16 ppm: protective P6, 16 ppm

SMILES | % PHAKPA (F129L) Disease level P2 at 4 ppm ([1]; soybean rust F129L isolate) [%] | % PHAKPA (F129L) Disease level P2 at 16 ppm ([1]; soybean rust F129L isolate) [%] | % PHAKPA (F129L) Disease level P6 at 4 ppm ([2]; soybean rust F129L isolate) [%] | % PHAKPA (F129L) Disease level P6 at 16 ppm ([2]; soybean rust F129L isolate) [%] | % PHAKPA (F129L) Disease level P2 at 4 ppm ([1]; F129L isolate) [%] | % PHAKPA (F129L) Disease level P2 at 16 ppm ([1]; F129L isolate) [%] | % PHAKPA (F129L) Disease level P6 at 4 ppm ([2]; F129L isolate) [%] | % PHAKPA (F129L) Disease level P6 at 16 ppm ([2]; F129L isolate) [%] | PHAKPA (F129L) Disease level (%) P2 at 4 ppm ([1]; protective, inoculation 2 days after spraying, 4 ppm, % diseased leaf area) [%] | PHAKPA (F129L) Disease level (%) P6 at 4 ppm ([2]; protective, inoculation six days after spraying, 4 ppm, % diseased leaf area) [%]
CO/N=C(/C(=O)OC)c1cccc(C)c1CO/N=C(\C)c1c(F)ccc(F)c1OC(F)(F)F [compound 366] | 53 | 13 | 83 | 12 | – | – | – | – | – | –
CO/N=C(/C(=O)OC)c1cccc(C)c1CO/N=C(\C)c1ccc(OC(F)(F)F)cc1Cl [compound 268] | 63 | 6 | 60 | 17 | – | – | – | – | – | –
CO/C=C(/C(=O)OC)c1cccc(C)c1CO/N=C(\C)c1ccccc1CC(F)(F)F [compound 437] | – | – | – | – | 2 | 0 | 8 | 0 | – | –
C#Cc1cc(F)c(F)c(/C(C)=N/OCc2c(C)cccc2/C(=N\OC)C(=O)OC)c1 [compound 242] | 87 | 10 | 87 | 20 | – | – | – | – | – | –
CNC(=O)/C(=N/OC)c1cccc(C)c1CO/N=C(\C)c1ccccc1C(C)(F)F [compound 372] | 85 | 26 | 85 | 16 | – | – | – | – | – | –
CO/N=C(/C(=O)OC)c1cccc(C)c1CO/N=C(\C)c1ccc(F)c(F)c1OC(F)(F)F [compound 447] | – | – | – | – | 7 | 0 | 33 | 1 | – | –
CC/C(=N\OCc1c(C)cccc1/C(=N\OC)C(=O)NC)c1ccccc1 [compound 294] | 1 | 1 | 2 | 0 | – | – | – | – | – | –
CO/N=C(/C(=O)OC)c1cccc(C)c1CO/N=C(\C)c1cccc(C(C)(F)F)c1 [compound 302] | 47 | 4 | 47 | 3 | – | – | – | – | – | –
CNC(=O)/C(=N/OC)c1cccc(C)c1CO/N=C(\C)c1cccc(F)c1OC(F)(F)F [compound 354] | 17 | 2 | 21 | 4 | – | – | – | – | – | –
CNC(=O)/C(=N/OC)c1cccc(C)c1CO/N=C(\C)c1cccc(OC/C(C)=N/OC)c1 [compound 226] | 28 | 3 | 57 | 7 | – | – | – | – | – | –
CO/N=C(/C(=O)OC)c1cccc(C)c1CO/N=C(\CC(F)(F)F)c1cccc(C(F)(F)F)c1 [compound 250] | 90 | 90 | 90 | 80 | – | – | – | – | – | –
CNC(=O)/C(=N/OC)c1cccc(C)c1CO/N=C(\COC)c1ccccc1 [compound 295] | 2 | 0 | 11 | 0 | – | – | – | – | – | –
CNC(=O)/C(=N/OC)c1cccc(C)c1CO/N=C(\C)c1ccc(F)cc1F [compound 267] | 2 | 0 | 10 | 4 | – | – | – | – | – | –
CNC(=O)/C(=N/OC)c1cccc(C)c1CO/N=C(/c1ccccc1)C(F)(F)F [compound 458] | – | – | – | – | 93 | 57 | 83 | 50 | – | –
CO/C=C(/C(=O)OC)c1cccc(C)c1CO/N=C(\C)c1ccc(OC)cc1C(F)(F)F [compound 464] | – | – | – | – | 1 | 0 | 8 | 0 | – | –
CO/C=C(/C(=O)OC)c1cccc(C)c1CO/N=C(\C)c1cccc(C(F)(F)F)c1 [compound 231] | 0 | 0 | 2 | 0 | – | – | – | – | 0 | 2
CO/N=C(/C(=O)OC)c1cccc(C)c1CO/N=C(\C)c1cccc(Cl)c1C(F)(F)F [compound 421] | – | – | – | – | 100 | 33 | 87 | 57 | – | –
CO/N=C(/C(=O)OC)c1cccc(C)c1CO/N=C(\C)c1cc(Cl)ccc1C(F)(F)F [compound 251] | 80 | 80 | 80 | 80 | – | – | – | – | – | –
CNC(=O)/C(=N/OC)c1cccc(C)c1CO/N=C(\C)c1ccccc1CC(C)C [compound 221] | 100 | 63 | 100 | 100 | – | – | – | – | – | –
C=C(C)c1cccc(/C(=N\OC)C(=O)NC)c1CO/N=C(\C)c1ccccc1 [compound 399] | – | – | – | – | 67 | 8 | 90 | 15 | – | –
CNC(=O)/C(=N/OC)c1cccc(C)c1CO/N=C(\CC(C)C)c1cccc(C(F)(F)F)c1 [compound 235] | 100 | 73 | 87 | 77 | – | – | – | – | – | –
CNC(=O)/C(=N/OC)c1cccc(C)c1CO/N=C(\C)c1ccc(-c2ccccc2)cc1C(F)(F)F [compound 413] | – | – | – | – | 40 | 15 | 33 | 15 | – | –
CNC(=O)/C(=N/OC)c1cccc(OC)c1CO/N=C(\C)c1cccc(C(F)(F)F)c1 [compound 461] | – | – | – | – | 26 | 2 | 52 | 6 | – | –
CO/N=C(/C(=O)OC)c1cccc(C)c1CO/N=C(\C)c1ccc(F)cc1C(F)(F)F [compound 263] | 80 | 15 | 73 | 22 | – | – | – | – | – | –
CNC(=O)/C(=N/OC)c1cccc(C)c1CO/N=C(\C)c1ccc(C#N)cc1C(F)(F)F [compound 424] | – | – | – | – | 100 | 27 | 97 | 50 | – | –
CNC(=O)/C(=N/OC)c1cccc(C)c1CO/N=C(\C)c1cccc(C2CC2)c1 [compound 299] | 53 | 13 | 53 | 22 | – | – | – | – | – | –
CNC(=O)/C(=N/OC)c1cccc(C)c1CO/N=C(\C)c1ccc(OC(F)(F)F)cc1C [compound 261] | 70 | 9 | 87 | 32 | – | – | – | – | – | –
CNC(=O)/C(=N/OC)c1cccc(C)c1CO/N=C(\C)c1ccc(F)cc1CC(F)(F)F [compound 394] | – | – | – | – | 9 | 3 | 12 | 2 | – | –
CNC(=O)/C(=N/OC)c1cccc(C)c1CO/N=C(\C)c1cc(C)ccc1C [compound 278] | 90 | 60 | 90 | 93 | – | – | – | – | – | –
